Here are results for ten molecules from ChEMBL document CHEMBL3853358, “Concise SAR Exploration Based on the "Head-to-Tail" Approach: Discovery of PI4KIIIα Inhibitors Bearing Diverse Scaffolds” (ACS Med Chem Lett, 2016).

The EC50 is the midpoint of the concentration-response curve. In general, IC50 refers to the concentration that inhibits the measured activity by half. The low end stands for higher potency, the high end for lower potency. By bioavailability is commonly meant the share of a dose that reaches the circulation, judged against a reference dose that is usually intravenous. The MRT is a mean duration of stay, worked out from the concentration-time curve. As a reminder, the clearance is the rate of elimination divided by the concentration. Low readings indicate a low capacity for elimination, high ones a high capacity for elimination. In general, AUC(0-inf) refers to total exposure, with the tail of the curve extrapolated. A lower AUC(0-inf) goes with low exposure.

Tested on in the first data set: not listed separately
The experiment in a line: Volume of distribution at steady state in CD(Sprague-Dawley) rat at 0.3 mg/kg, iv administered as single dose measured up to 25 hrs. As to conditions: in vivo, read-out: Vdss. Format: ADME, organism-based.
As to `COCCn1cnc2ccc(-c3cnc(COC4CC4)c(NS(=O)(=O)c4ccc(F)cc4F)c3)cc2c1=O`, the Vd came to 0.2 L/kg.

The next data set deals with Hepatitis C virus. The data set is described as follows: Antiviral activity against HCV genotype […] Con1 infected in human Huh5-2 cells co-expressing subgenomic HCV replicon NS3 assessed as reduction in viral replication after 2 days by luciferase reporter gene assay. Format: functional, cell-based, Hepacivirus hominis, genotype 1b Con1. As to conditions: Huh-5-2, 48 h. (In general: Replicon systems follow genome replication, usually without infectious particles.)
Consider `COCCn1cnc2ccc(-c3cnc(COC4CC4)c(NS(=O)(=O)c4ccc(F)cc4F)c3)cc2c1=O`, for which the EC50 was 10 nM.

Tested on in the next data set: not listed separately
The data set is described as follows: Inhibition of human Flag-tagged PI4K3alpha expressed in insect cells preincubated with enzyme followed by PS:PI substrate and ATP addition measured after 60 mins by HTRF Transcreener ADP assay.
Conditions: not given
For orientation: TR-FRET usually uses a lanthanide donor and a delayed reading to cut background.
In turn, `COCc1ncc(-c2ccc3ncn(CCO)c(=O)c3c2)cc1NS(=O)(=O)c1ccc(F)cc1F` showed an IC50 of 2.5 nM.

Molecule `COCc1ncc(-c2ccc3ncn(CCS(C)(=O)=O)c(=O)c3c2)cc1NS(=O)(=O)c1ccc(F)cc1F` showed an IC50 of 1.6 nM.

In the case of `COCc1ncc(-c2ccc3ncn(-c4ccccc4)c3c2)cc1NS(=O)(=O)c1ccc(F)cc1F`, it took 13 nM to reach half-maximal inhibition (IC50). Compared with the last molecule, the IC50 is about 8.1-fold higher.

Take `COCCn1cnc2ccc(-c3cnc(COC4CC4)c(NS(=O)(=O)c4ccc(F)cc4F)c3)cc2c1=O`: the IC50 is 0.31 nM.

Turning to `COCc1ncc(-c2c3ccc(-c4ccccc4)cc3nn2C)cc1NS(=O)(=O)c1ccc(F)cc1F`, the IC50 was found to be 260 nM.

With `COCc1ncc(-c2ccc3nnn(-c4ccccc4)c3c2)cc1NS(=O)(=O)c1ccc(F)cc1F`, it took 50 nM to reach half-maximal inhibition (IC50).

Molecule `COCc1ncc(-c2ccn3nnc(-c4ccccc4)c3c2)cc1NS(=O)(=O)c1ccc(F)cc1F` gave an IC50 of 93 nM.

On to `COCc1ncc(-c2ccc3ncc(=O)n(-c4ccccc4)c3c2)cc1NS(=O)(=O)c1ccc(F)cc1F`, for which the IC50 came out at 2.2 nM. This IC50 is about 42-fold lower than that of the molecule before.

As for `COCc1ncc(-c2ccc3ncc(-c4ccccc4)c(=O)n3c2)cc1NS(=O)(=O)c1ccc(F)cc1F`, the IC50 amounted to 8 nM.

In turn, `COCc1ncc(-c2ccc3nn(C)c(-c4ccccc4)c3c2)cc1NS(=O)(=O)c1ccc(F)cc1F` showed an IC50 of 9.1 nM.

Tested on in a further data set: not listed separately
The data set is described as follows: Inhibition of human Flag-tagged PI4K3beta expressed in insect cells preincubated with enzyme followed by PS:PI substrate and ATP addition measured after 60 mins by HTRF Transcreener ADP assay.
Conditions: not given
Consider `COCc1ncc(-c2ccc3ncn(CCO)c(=O)c3c2)cc1NS(=O)(=O)c1ccc(F)cc1F`, for which inhibition was half-maximal at 660 nM (IC50).

`COCc1ncc(-c2ccc3ncn(CCS(C)(=O)=O)c(=O)c3c2)cc1NS(=O)(=O)c1ccc(F)cc1F` came in with an IC50 of 160 nM.

Take `COCc1ncc(-c2ccc3ncn(-c4ccccc4)c3c2)cc1NS(=O)(=O)c1ccc(F)cc1F`: the IC50 is 410 nM. This IC50 lies about 2.6-fold higher than the previous one.

With `COCCn1cnc2ccc(-c3cnc(COC4CC4)c(NS(=O)(=O)c4ccc(F)cc4F)c3)cc2c1=O`, the IC50 worked out at 220 nM. Compared with the last molecule, the IC50 is about 1.9-fold lower.

Molecule `COCc1ncc(-c2c3ccc(-c4ccccc4)cc3nn2C)cc1NS(=O)(=O)c1ccc(F)cc1F` registered an IC50 of 18000 nM.

For `COCc1ncc(-c2ccc3nnn(-c4ccccc4)c3c2)cc1NS(=O)(=O)c1ccc(F)cc1F`, the IC50 was found to be 3700 nM.

For the molecule `COCc1ncc(-c2ccn3nnc(-c4ccccc4)c3c2)cc1NS(=O)(=O)c1ccc(F)cc1F`, the IC50 was more than 10000 nM.

Take `COCc1ncc(-c2ccc3ncc(=O)n(-c4ccccc4)c3c2)cc1NS(=O)(=O)c1ccc(F)cc1F`: the IC50 was found to be 1400 nM.

`COCc1ncc(-c2ccc3ncc(-c4ccccc4)c(=O)n3c2)cc1NS(=O)(=O)c1ccc(F)cc1F` yielded an IC50 of 8200 nM.

The molecule `COCc1ncc(-c2ccc3nn(C)c(-c4ccccc4)c3c2)cc1NS(=O)(=O)c1ccc(F)cc1F` came in with an IC50 of 200 nM. This IC50 lies about 41-fold lower than the previous one.

Tested on in the next data set: not listed separately
The experiment in a line: Metabolic stability in human liver microsomes assessed as compound remaining at 5 uM measured up to 60 mins. It counts as ADME. As to conditions: read-out: Stability. On the technique in general: Microsomes from liver hold many membrane-bound enzymes, among them those of drug oxidation.
For `COCCn1cnc2ccc(-c3cnc(COC4CC4)c(NS(=O)(=O)c4ccc(F)cc4F)c3)cc2c1=O`, the remaining at 1 h, 5 µM amounted to 104%.

Tested on in the next data set: not listed separately
The data set is described as follows: Oral bioavailability in CD(Sprague-Dawley) rat at 1 mg/kg administered as single dose measured up to 25 hrs. As to conditions: in vivo. It counts as ADME, organism-based.
As for `COCCn1cnc2ccc(-c3cnc(COC4CC4)c(NS(=O)(=O)c4ccc(F)cc4F)c3)cc2c1=O`, the bioavailability was 91%.

The target in a further data set is Phosphatidylinositol 4,5-bisphosphate 3-kinase catalytic subunit beta isoform (Homo sapiens, UniProt P42338). The experiment in a line: Inhibition of PI3Kbeta (unknown origin) preincubated prior addition of PIP2 as substrate and ATP measured after 30 mins by HTRF assay.
Chain of Phosphatidylinositol 4,5-bisphosphate 3-kinase catalytic subunit beta isoform (P42338 whole entry, canonical isoform): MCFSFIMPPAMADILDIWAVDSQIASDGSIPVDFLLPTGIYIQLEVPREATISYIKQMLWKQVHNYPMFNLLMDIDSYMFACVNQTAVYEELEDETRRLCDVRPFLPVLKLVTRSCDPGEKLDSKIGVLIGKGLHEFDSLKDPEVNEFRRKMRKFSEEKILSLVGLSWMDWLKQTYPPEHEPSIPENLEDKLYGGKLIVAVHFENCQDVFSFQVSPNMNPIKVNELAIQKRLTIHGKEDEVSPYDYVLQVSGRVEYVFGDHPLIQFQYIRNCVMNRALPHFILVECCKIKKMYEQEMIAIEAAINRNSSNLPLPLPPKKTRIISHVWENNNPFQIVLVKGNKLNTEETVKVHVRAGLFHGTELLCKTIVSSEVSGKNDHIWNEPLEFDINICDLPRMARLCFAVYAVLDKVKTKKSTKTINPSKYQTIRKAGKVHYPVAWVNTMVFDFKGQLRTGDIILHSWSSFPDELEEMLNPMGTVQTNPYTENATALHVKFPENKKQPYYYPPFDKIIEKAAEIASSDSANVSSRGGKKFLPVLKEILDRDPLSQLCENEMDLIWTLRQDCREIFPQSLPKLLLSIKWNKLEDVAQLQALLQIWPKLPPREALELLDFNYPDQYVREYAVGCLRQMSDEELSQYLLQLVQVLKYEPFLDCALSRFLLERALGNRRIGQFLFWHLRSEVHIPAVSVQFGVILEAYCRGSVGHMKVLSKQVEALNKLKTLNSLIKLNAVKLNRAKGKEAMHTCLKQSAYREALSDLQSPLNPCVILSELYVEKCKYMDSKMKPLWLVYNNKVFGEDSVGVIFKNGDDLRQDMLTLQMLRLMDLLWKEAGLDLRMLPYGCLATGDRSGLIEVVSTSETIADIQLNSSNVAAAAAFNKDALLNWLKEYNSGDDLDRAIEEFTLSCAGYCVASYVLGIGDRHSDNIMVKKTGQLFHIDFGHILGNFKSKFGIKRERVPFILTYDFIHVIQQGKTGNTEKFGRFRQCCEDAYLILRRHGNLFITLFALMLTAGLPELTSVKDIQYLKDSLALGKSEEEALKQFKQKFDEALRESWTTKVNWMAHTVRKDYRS
Conditions: not given
`COCCn1cnc2ccc(-c3cnc(COC4CC4)c(NS(=O)(=O)c4ccc(F)cc4F)c3)cc2c1=O` yielded an IC50 of 1400 nM.

Another data set concerns Hepatitis C virus. The data set is described as follows: Antiviral activity against HCV genotype 1b Con1 infected in human Huh5-2 cells co-expressing subgenomic HCV replicon NS3 assessed as reduction in viral replication after 2 days by luciferase reporter gene assay. Format: functional, cell-based, Hepacivirus hominis. The following applies: genotype 1b Con1, Huh-5-2, 48 h.
In the case of `COCc1ncc(-c2ccc3ncn(CCO)c(=O)c3c2)cc1NS(=O)(=O)c1ccc(F)cc1F`, the EC50 is 81 nM.

For `COCc1ncc(-c2ccc3ncn(CCS(C)(=O)=O)c(=O)c3c2)cc1NS(=O)(=O)c1ccc(F)cc1F`, the EC50 turned out to be 88 nM.

As to `COCc1ncc(-c2ccc3ncn(-c4ccccc4)c3c2)cc1NS(=O)(=O)c1ccc(F)cc1F`, the EC50 came to 880 nM.

For `COCCn1cnc2ccc(-c3cnc(COC4CC4)c(NS(=O)(=O)c4ccc(F)cc4F)c3)cc2c1=O`, the EC50 amounted to 6.8 nM.

Turning to `COCc1ncc(-c2c3ccc(-c4ccccc4)cc3nn2C)cc1NS(=O)(=O)c1ccc(F)cc1F`, the EC50 amounted to 700 nM.

As to `COCc1ncc(-c2ccc3nnn(-c4ccccc4)c3c2)cc1NS(=O)(=O)c1ccc(F)cc1F`, the EC50 turned out to be 1000 nM.

On to `COCc1ncc(-c2ccn3nnc(-c4ccccc4)c3c2)cc1NS(=O)(=O)c1ccc(F)cc1F`, for which the EC50 came to 780 nM.

Turning to `COCc1ncc(-c2ccc3ncc(=O)n(-c4ccccc4)c3c2)cc1NS(=O)(=O)c1ccc(F)cc1F`, the EC50 stood at 41 nM.

Take `COCc1ncc(-c2ccc3ncc(-c4ccccc4)c(=O)n3c2)cc1NS(=O)(=O)c1ccc(F)cc1F`: the EC50 is 68 nM.

As for `COCc1ncc(-c2ccc3nn(C)c(-c4ccccc4)c3c2)cc1NS(=O)(=O)c1ccc(F)cc1F`, the EC50 stood at 610 nM.

Tested on in a further data set: not listed separately
The experiment in a line: Terminal half life in CD(Sprague-Dawley) rat at 0.3 mg/kg, iv administered as single dose. As to conditions: in vivo, read-out: beta t1/2 (converted). It counts as ADME, organism-based.
With `COCCn1cnc2ccc(-c3cnc(COC4CC4)c(NS(=O)(=O)c4ccc(F)cc4F)c3)cc2c1=O`, the half-life is 3.3 h.

Tested on in a further data set: not listed separately
The data set is described as follows: MRT in CD(Sprague-Dawley) rat at 1 mg/kg, po administered as single dose. The following applies: in vivo. Format: ADME, organism-based.
In turn, `COCCn1cnc2ccc(-c3cnc(COC4CC4)c(NS(=O)(=O)c4ccc(F)cc4F)c3)cc2c1=O` registered a mean residence time (MRT) of 5.5 h.

Tested on in the next data set: not listed separately
The experiment in a line: Total clearance in CD(Sprague-Dawley) rat at 0.3 mg/kg, iv administered as single dose measured up to 25 hrs. It counts as ADME, organism-based. The following applies: in vivo.
Consider `COCCn1cnc2ccc(-c3cnc(COC4CC4)c(NS(=O)(=O)c4ccc(F)cc4F)c3)cc2c1=O`, for which the clearance was 0.667 mL/min/kg.

The target of another data set is Phosphatidylinositol 4,5-bisphosphate 3-kinase catalytic subunit alpha isoform (Homo sapiens, UniProt P42336). The experiment in a line: Inhibition of PI3Kalpha (unknown origin) preincubated prior addition of PIP2 as substrate and ATP measured after 30 mins by HTRF assay.
Chain of Phosphatidylinositol 4,5-bisphosphate 3-kinase catalytic subunit alpha isoform (P42336 whole entry, canonical isoform): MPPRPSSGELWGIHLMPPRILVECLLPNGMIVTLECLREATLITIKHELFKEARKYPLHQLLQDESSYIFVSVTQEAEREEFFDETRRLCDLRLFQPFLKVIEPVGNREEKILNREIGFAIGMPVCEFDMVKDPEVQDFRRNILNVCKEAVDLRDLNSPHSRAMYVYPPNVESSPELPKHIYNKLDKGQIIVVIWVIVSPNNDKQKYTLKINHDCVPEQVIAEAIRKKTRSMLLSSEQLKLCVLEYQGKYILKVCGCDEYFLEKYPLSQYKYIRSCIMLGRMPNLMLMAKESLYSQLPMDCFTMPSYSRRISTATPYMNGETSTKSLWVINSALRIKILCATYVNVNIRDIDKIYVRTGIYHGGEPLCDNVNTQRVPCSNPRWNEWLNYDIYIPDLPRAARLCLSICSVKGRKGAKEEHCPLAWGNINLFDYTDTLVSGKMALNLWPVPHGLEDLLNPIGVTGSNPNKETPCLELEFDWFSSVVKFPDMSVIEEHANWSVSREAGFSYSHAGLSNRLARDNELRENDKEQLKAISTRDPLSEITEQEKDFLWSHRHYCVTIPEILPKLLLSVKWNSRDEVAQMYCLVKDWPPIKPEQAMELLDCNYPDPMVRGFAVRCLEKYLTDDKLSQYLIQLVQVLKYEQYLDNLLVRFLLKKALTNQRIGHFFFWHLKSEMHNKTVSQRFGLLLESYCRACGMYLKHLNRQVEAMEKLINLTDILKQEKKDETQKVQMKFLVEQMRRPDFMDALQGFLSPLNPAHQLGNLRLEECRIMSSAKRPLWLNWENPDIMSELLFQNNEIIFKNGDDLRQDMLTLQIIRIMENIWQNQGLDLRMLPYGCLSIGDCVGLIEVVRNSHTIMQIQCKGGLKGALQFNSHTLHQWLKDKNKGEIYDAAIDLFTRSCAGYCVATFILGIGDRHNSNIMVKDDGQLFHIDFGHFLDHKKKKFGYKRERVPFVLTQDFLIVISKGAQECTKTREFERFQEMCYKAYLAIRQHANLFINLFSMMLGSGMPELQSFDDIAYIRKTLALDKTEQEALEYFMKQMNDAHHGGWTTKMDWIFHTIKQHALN
Conditions: not given
In the case of `COCCn1cnc2ccc(-c3cnc(COC4CC4)c(NS(=O)(=O)c4ccc(F)cc4F)c3)cc2c1=O`, the IC50 amounted to 240 nM.

Tested on in another data set: not listed separately
The experiment in a line: AUC (0 to infinity) in CD(Sprague-Dawley) rat at 1 mg/kg, po administered as single dose measured up to 25 hrs. It counts as ADME, organism-based. The following applies: in vivo. Set-up: dose 1 mg/kg, route oral, time infinity.
Consider `COCCn1cnc2ccc(-c3cnc(COC4CC4)c(NS(=O)(=O)c4ccc(F)cc4F)c3)cc2c1=O`, for which the AUC(0-inf) came out at 42 µM·h.

Another data set is filed under the species Homo sapiens. The experiment in a line: Selectivity ratio of IC50 for human Flag-tagged PI4K3beta expressed in insect cells to IC50 for human Flag-tagged PI4K3alpha expressed in insect cells.
Conditions: not given
For the molecule `COCc1ncc(-c2ccc3ncn(CCO)c(=O)c3c2)cc1NS(=O)(=O)c1ccc(F)cc1F`, the Ratio IC50 was found to be 260.

For the molecule `COCc1ncc(-c2ccc3ncn(CCS(C)(=O)=O)c(=O)c3c2)cc1NS(=O)(=O)c1ccc(F)cc1F`, the Ratio IC50 came out at 100.

As to `COCc1ncc(-c2ccc3ncn(-c4ccccc4)c3c2)cc1NS(=O)(=O)c1ccc(F)cc1F`, the Ratio IC50 came to 32.

Take `COCCn1cnc2ccc(-c3cnc(COC4CC4)c(NS(=O)(=O)c4ccc(F)cc4F)c3)cc2c1=O`: the Ratio IC50 was 710.

In the case of `COCc1ncc(-c2c3ccc(-c4ccccc4)cc3nn2C)cc1NS(=O)(=O)c1ccc(F)cc1F`, the Ratio IC50 came to 96.

As for `COCc1ncc(-c2ccc3nnn(-c4ccccc4)c3c2)cc1NS(=O)(=O)c1ccc(F)cc1F`, the Ratio IC50 stood at 74.

For `COCc1ncc(-c2ccn3nnc(-c4ccccc4)c3c2)cc1NS(=O)(=O)c1ccc(F)cc1F`, the Ratio IC50 was more than 110.

With `COCc1ncc(-c2ccc3ncc(=O)n(-c4ccccc4)c3c2)cc1NS(=O)(=O)c1ccc(F)cc1F`, the Ratio IC50 worked out at 640.

With `COCc1ncc(-c2ccc3ncc(-c4ccccc4)c(=O)n3c2)cc1NS(=O)(=O)c1ccc(F)cc1F`, the Ratio IC50 came out at 1030.

Regarding `COCc1ncc(-c2ccc3nn(C)c(-c4ccccc4)c3c2)cc1NS(=O)(=O)c1ccc(F)cc1F`, the Ratio IC50 came out at 22.

Tested on in the next data set: not listed separately
The experiment in a line: Metabolic stability in rat liver microsomes assessed as compound remaining at 5 uM measured up to 60 mins. It counts as ADME. The following applies: read-out: Stability.
For the molecule `COCCn1cnc2ccc(-c3cnc(COC4CC4)c(NS(=O)(=O)c4ccc(F)cc4F)c3)cc2c1=O`, the remaining at 1 h, 5 µM turned out to be 91%.
